Like-named read-outs stand apart in the source and are kept apart here.
What was measured:
[1] = tested on: SOS regulon luxCDABE gene fusions; experiment: SOS regulon lux fusions: stress response in liquid LB; assay type: cell-based, E. coli
Protocol: (§1) To test the stress responses, one or two single colonies of each selected strain were used to inoculate 5.0 ml of LB medium containing 150 μg/ml of ampicillin. These cultures were grown overnight at 37° C. then diluted by adding 50 μl or 100 μl of the overnight culture into 10.0 ml of fresh LB medium (without ampicillin) and grown with agitation at 37° C. until the culture was in exponential phase with readings on a Klett-Summerson colorimeter containing the red filter of between 10 and 40. These actively growing cultures were immediately used to initiate a stress response experiment by adding 50 μl of cultures to 50 μl of LB medium containing various concentrations of chemical in the wells a 96 well luminometer plate. This division of the actively growing culture at the time of chemical addition ensured identical populations were present when the stress was imposed. Light production was measured in a Dynex ML3000 luminometer at 37° C. The dimensionless units of light production, relative light units (RLU), are obtained by comparison with the light reading from an internal light-emitting diode.
The ability of these promoter-luxCDABE fusions to report activation of the SOS stress response was tested using nalidixic acid, a known, potent chemical inducer. The final concentrations of nalidixic acid were 1, 5, 25, and 125 μg/ml for all but strain DPD2293, which was tested at 80, 40, 20, 10, 5, 2.5, and 1.25 μg/ml.
Specificity of responses was tested by measuring the effect of ethanol on these SOS regulon gene fusions.

[2] = tested on: clpB-luxCDABE gene fusion; details: 38 min
From the text: Plasmid DNA was isolated from lux-a.pk043.d3, digested with restriction enzyme XmaI, and ligated with T4 DNA ligase. The ligation reaction was used to transform E. coli strain DPD 1675 by electroporation. Transformants were selected by ampicillin resistance. […] The response to ethanol treatment of two of these light producing transformants that putatively contain inverted chromosomal inserts, of lux-a.pk054.c3 (DPD2243) that contains a plasmid with the clpB promoter operably linked to the luxCDABE reporter and of the original lux-a.pk043.d3 were compared. Actively growing cultures at 37° C. in LB medium were treated with 4% ethanol and light production was quantitated at 37° C. using a microplate luminometer (Dynex ML3000). Table 17 summarizes the average bioluminescence of duplicate samples at 38 min after treatment.

[3] = tested on: heat shock regulon luxCDABE gene fusions; experiment: heat shock regulon lux fusions: stress response in liquid LB; assay type: cell-based, E. coli; details: each of the six heat shock fusion strains; at least two of 5, 4, 3, 2 (v/v)% ethanol
Protocol: as §1

[4] = tested on: SoxR/S regulon luxCDABE gene fusions; experiment: SoxR/S regulon lux fusions: stress response in liquid LB; assay type: cell-based, E. coli; details: each of four strains; 1000-16 μg/ml, all seven concentrations
Protocol: Like the SOS and heat shock regulon fusions, these had basal light production greater than the promoterless parental plasmid indicating the presence of a promoter. Responsiveness of four of these strains to a known inducer of the SoxR/S regulon, methyl viologen, was tested at 1000, 500, 250, 125, 62, 31 and 16 μg/ml. […] Table 8 gives the response ratio for 250 μg/ml at 120 minutes of treatment for the four tested strains. Here again, the biologically appropriate response was observed.

[5] = tested on: ahpC-luxCDABE gene fusions in pcnB- host; details: both ahpC-lux fusions in pcnB- host; 0.004-0.00006%, all seven concentrations
Protocol: as §1

[6] = tested on: OxyR regulon ahpC-luxCDABE gene fusions; details: three ahpC-lux strains; 0.016-0.00025%
Protocol: as §1
To test if these strains would report on activation of the OxyR-controlled oxidative stress response, each was treated with hydrogen peroxide at 0.016, 0.008, 0.004, 0.002, 0.001, 0.0005, 0.00025%.

[7] = tested on: yebF-luxCDABE fusion; experiment: inverted yebF-luxCDABE fusion induction by DNA damaging agents; assay type: cell-based, E. coli; details: yebF-luxCDABE fusion; mitomycin C, FIG. 2
From the text: In this case, a divergent promoter to the purT gene was present in the chromosomal fragment and strains containing the backward yebF fusion produced light. Following isolation of plasmid DNA, XmaI digestion that releases the insert DNA from the vector, religation and transformation, 10% of the transformants produced light. […] The orientation of the inserted segment to yield a fusion of yebF to the luxCDABE operon was confirmed by DNA sequence analysis.
To test inverting of a chromosomal segment in a plasmid containing divergent promoters, the backward fusion to yebF was chosen. […] In this case, a divergent promoter to the purT gene was present in the chromosomal fragment and strains containing the backward yebF fusion produced light. Following XmaI digestion, religation and transformation, 10% of the transformants produced light. […] This was verified by DNA sequence analysis. Thus, inverting chromosomal segments containing divergent promoters is possible and is facilitated if the two promoters can be distinguished by their biological activity.

[8] = tested on: luxCDABE gene fusions to MMC array genes; experiment: Lux-A Collection fusions tested for MMC induction; assay type: cell-based, E. coli
Protocol: The Lux-A Collection of reporter gene fusions was examined for presence of fusions to the genes in Table 11. […] Each of these was tested for induction by MMC at several doses over a time course of 100 minutes.
As expected, the expression of the known SOS genes was elevated; however the expression of several was elevated less than 2-fold (Table 12) and as such were within a large group of 792 genes the expression of which was elevated by 20% or more. Most of these are likely due to artifacts in the array data rather than to actual biologically relevant responses. To test if strains carrying luxCDABE gene fusions would yield the expected positive result, the three gene fusions that were available in the Lux-A Collection of reporter gene fusions were tested for mitomycin C responses.

[9] = tested on: E. coli strain MG1655 gene expression; experiment: DNA microarray experiment with mitomycin C; assay type: cell-based; details: MMC 250 ng/ml, 40 min
Protocol: The E. coli strain MG1655 (rph-1) was used. Cultures grown in LB at 37° C. overnight were diluted 1 to 250 into fresh LB and grown at 37° C. with aeration. Each subculture was split into two 100 ml cultures when the reading on a Klett-Sammerson calorimeter with the red filter reads 20 Klett units. MMC (Sigma, dissolved in ddH2O) at a final concentration of 250 ng/ml, a sub-lethal dose, was added to one of the split cultures. The other culture was a no addition control. Incubation at 37° C. continued for another 40 minutes, then cells were collected for preparing total RNA. The MMC treated culture and its control reached 60 and 55 Klett units, respectively after 40 minute treatment.
Total RNA purification, first-strand cDNA labeling, preparation of the E. coli whole genome high-density microarray chips, hybridization and data analysis were done as previously described (Wei et al. (2001) J. Bacteriol. 183: 545-556). Both cy3 and cy5 were used in probe labeling, and the hybridization experiments were repeated by swapping the fluorescence cy dyes between each pair of MMC treated sample and its blank control.
Ratios of expression in the mitomycin C treated samples vs. controls were calculated for all genes in the DNA array. Ratios greater than or equal to 2 were considered induced genes, while those with ratios less than 2 fold were considered uninduced. The known SOS genes (Kim et al., (1997) Proc Natl Acad Sci USA Dec. 9, 1997; 94(25):13792-7; Lomba et al., (1997) FEMS Microbiol Lett 156:119-122; Walker, G. C. (1996). In Escherichia coli and Salmonella: Cellular and Molecular Biology. ASM Press pp.1400-1416) fell into both the induced (Table 11) and uninduced classes (Table 12).

CCO [Ethanol]
response ratio ([1]; DPD2249 dinP-lux, 3% ethanol, 40 min): 0.80 | bioluminescence vs untreated control ([1]; SOS regulon fusions, 5, 4, or 3% (v/v) ethanol): little to no increased bioluminescence | Light production in LB + 4% ethanol ([2]; Inverted lux-a.pk043.d3, second isolate): 29.63 RLU | Light production in LB + 4% ethanol ([2]; inverted lux-a.pk043.d3, first isolate): 8.17 RLU | bioluminescence vs untreated control [3]: increased bioluminescence

C[n+]1ccc(-c2cc[n+](C)cc2)cc1 [Methyl viologen, methyl viologen]
bioluminescence vs untreated control [4]: induced increased bioluminescence

OO [H2O2, hydrogen peroxide]
bioluminescence induction [5]: dramatically induced increased bioluminescence | bioluminescence induction [6]: minimally induced

CO[C@@]12[C@H](COC(N)=O)C3=C(C(=O)C(C)=C(N)C3=O)N1C[C@@H]1N[C@@H]12 [MMC, mitomycin C]
induction of bioluminescence [7]: induction by mitomycin C was demonstrated | gene expression response ([8]; four fusions to genes not previously known MMC inducible): no evidence of increased gene expression | induction response ([8]; four fusions to known SOS genes of Table 11, several doses, 100 min time course): induction of increased bioluminescence | bioluminescence response ([8]; three fusions to SOS genes of Table 12): induced increased bioluminescence | Fold induction/array expt ([9]; b0531): 3.3 | Fold induction/array expt ([9]; b0571 (ylcA)): 2.2 | Fold induction/array expt ([9]; b1228): 2.5 | Fold induction/array expt ([9]; b1847 (yebF)): 3.3 | Fold induction/array experiment ([9]; b1848 (yebG)): 5.8 | Fold induction/array expt ([9]; b2559): 2.0 | Fold induction/array expt ([9]; b2940): 2.3 | Fold induction/array expt ([9]; b3199): 2.0 | Fold induction/array expt ([9]; cspA): 2.9 | Fold induction/array experiment ([9]; dinB (dinP)): 2.0 | Fold induction/array experiment ([9]; dinD): 2.2 | Fold induction/array experiment ([9]; dinF): 1.8 | Fold induction/array experiment ([9]; dinG): 1.4 | Fold induction/array experiment ([9]; dinI): 6.7 | Fold induction/array expt ([9]; dniR): 2.1 | Fold induction/array expt ([9]; exbD): 2.2 | Fold induction/array experiment ([9]; himA): 1.3 | Fold induction/array expt ([9]; hslS): 6.7 | Fold induction/array expt ([9]; hslT): 4.0 | Fold induction/array expt ([9]; infA): 2.3 | Fold induction/array expt ([9]; insA_4): 2.1 | Fold induction/array expt ([9]; insB_1): 2.1 | Fold induction/array expt ([9]; insB_2): 2.2 | Fold induction/array experiment ([9]; lexA): 3.6 | Fold induction/array expt ([9]; mioC): 2.1 | Fold induction/array experiment ([9]; polB (dinA)): 1.2 | Fold induction/array experiment ([9]; recA): 3.0 | Fold induction/array experiment ([9]; recN): 8.3 | Fold induction/array experiment ([9]; ruvA): 2.0 | Fold induction/array experiment ([9]; ruvB): 1.5 | Fold induction/array expt ([9]; secG): 2.2 | Fold induction/array experiment ([9]; sulA): 5.8 | Fold induction/array expt ([9]; trkH): 2.1 | Fold induction/array experiment ([9]; umuC): 2.1 | Fold induction/array experiment ([9]; umuD): 1.2 | Fold induction/array experiment ([9]; uvrA): 2.3 | Fold induction/array experiment ([9]; uvrB): 2.1 | Fold induction/array experiment ([9]; uvrD): 1.4 | Fold induction/array expt ([9]; xseA): 2.0
